The text below walks through data of patent publication US10653688B2, “6-(6-membered heteroaryl and aryl)isoquinolin-3-yl carboxamides and preparation and use thereof” (Samumed, LLC, priority 2017, dated 2020).

Test [1] deals with recombinant DYRK1A kinase (Homo sapiens (Human), UniProt Q13627). Description: DYRK1A kinase assay (Ser/Thr 18 peptide Z-lyte, FRET).
In test [2] the target is recombinant GSK3β kinase (Homo sapiens (Human), UniProt P49841). Description: GSK3β kinase assay (Ser/Thr 09 peptide Z-lyte, FRET).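 Also: FRET read-out as coumarin over fluorescein emission ratio, compounds incubated one hour at room temperature, IC50 from dose-response curve fit.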 Type of test: biochemical.
Chain of recombinant GSK3β kinase (P49841 whole entry): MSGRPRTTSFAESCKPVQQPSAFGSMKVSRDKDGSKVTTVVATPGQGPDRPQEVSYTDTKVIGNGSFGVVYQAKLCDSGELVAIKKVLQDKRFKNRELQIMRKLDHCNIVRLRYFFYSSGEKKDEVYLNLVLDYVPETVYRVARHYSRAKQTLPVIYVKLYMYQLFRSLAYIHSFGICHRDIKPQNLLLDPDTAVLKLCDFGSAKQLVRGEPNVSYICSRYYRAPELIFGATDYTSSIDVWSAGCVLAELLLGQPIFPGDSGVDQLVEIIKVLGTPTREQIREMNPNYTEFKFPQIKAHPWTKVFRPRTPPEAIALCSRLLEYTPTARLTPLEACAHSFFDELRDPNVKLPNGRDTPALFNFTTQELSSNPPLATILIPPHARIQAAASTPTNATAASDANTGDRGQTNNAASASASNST
Test [3] deals with SW480 colon carcinoma cells. Kind of test: Cell viability assay (CellTiter-Glo). Type of test: cell-based, human. Particulars: Homo sapiens; for EC50: 96 h, four days, CellTiter-Glo. Background: In ATP-based viability assays light output follows the ATP content of the culture.
The subject of test [4] is LL29 cells (primary human fibroblasts derived from IPF patients), α-smooth muscle actin. Description: Inhibition of fibrotic process: TGF-β1-treated primary human fibroblasts, αSMA staining.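 As to all read-outs here: controls were TGF-β1-stimulated wells with DMSO vehicle as the positive reference and cells given DMSO alone as the negative reference.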 Type of test: cell-based. Particulars: Homo sapiens, Fibroblast; for EC50: 96 h, TGF-β1 20 ng/mL, 4 days, % cells positive for αSMA; for inhibition at 10 µM: read-out: percent inhibition at 10 μM (given for EC50 >10 μM), TGF-β1, αSMA, 10 μM.

In test [5] the test system is Wnt activity (SW480 colon carcinoma cells stably expressing the Sp5-Luc reporter gene). Description: Wnt activity screening assay (Sp5-Luc reporter gene assay). The following applies: Homo sapiens; for EC50: 36 to 48 hours; for inhibition at 10 µM: read-out: percent inhibition at 10 μM (given for EC50 >10 μM), 10 μM. The class given is cell-based, human. Put shortly: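 SW480 colon carcinoma cells stably carrying a lentiviral luciferase reporter driven by an Sp5 promoter with eight TCF/LEF sites, plated at 4,000 cells/well in DMEM with 1% FBS. Compound exposure for 36–48 h at 37 °C, then luminescence read. Signals normalized to DMSO; EC50 from four-parameter nonlinear fit.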

For test [6], the system named is IL-6 in human peripheral blood mononuclear cells (huPBMCs). Description: IL-6 inhibition in LPS-stimulated human peripheral blood mononuclear cells (HTRF). Particulars: Homo sapiens, PBMC; for EC50: LPS 50 ng/mL, 22 hours, IL-6 HTRF; for inhibition at 10 µM: read-out: percent inhibition at 10 μM (given for EC50 >10 μM), LPS, IL-6, 10 μM. The class given is cell-based. In outline: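 Fresh normal human PBMCs at 1×10e6 cells/mL in RPMI with 1% FBS received compound, then 50 ng/mL E. coli 0111:B4 LPS 2 h later, and were incubated a further 22 h at 37° C. IL-6 read by HTRF (665/620 nm ratio), normalized to DMSO; EC50 from 4-parameter fit.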
(In general: TR-FRET usually uses a lanthanide donor and a delayed reading to cut background.)

The mark [7] stands for this setting: DYRK1A kinase, head says EC50, method says IC50, ATP 30 μM.
The mark [8] stands for this setting: GSK3β kinase, head says EC50, method says IC50, ATP 46 μM.

Where two headings read alike, the source gives them in different places. Bounds are passed on as bounds.

Take `CN1CCN(c2cc(C(=O)Nc3cc4cc(-c5cnc6cc[nH]c6n5)ccc4cn3)ccn2)CC1` [Compound 137, N-(6-(5H-Pyrrolo[2,3-b]pyrazin-3-yl)isoquinolin-3-yl)-2-(4-methylpiperazin-1-yl)isonicotinamide]: the half-maximal effective concentration (EC50) (in general, the concentration at which the effect is half-maximal) in test [1] (setting [7]) was 27 nM; in test [2] (setting [8]), above 10000 nM; in test [3] it was 1220 nM; in test [4], above 10000 nM; in test [5], above 10000 nM; in test [6], above 10000 nM. In addition, the inhibition (commonly the share of the control response that was lost under treatment) at 10 µM in test [4] came to 34.2%; in test [5], 19.8%; in test [6] it was 3.9%.
As to `CN1CCN(c2cc(C(=O)Nc3cc4cc(-c5ccccn5)ccc4cn3)ccn2)CC1` [Compound 4, 2-(4-Methylpiperazin-1-yl)-N-(6-(pyridin-2-yl)isoquinolin-3-yl) isonicotinamide], the EC50 in test [1] was 242 nM; in test [2], above 10000 nM; in test [3], above 10000 nM; in test [4], 3750 nM; in test [5], above 10000 nM; in test [6], 6750 nM. In addition, the inhibition at 10 µM was determined as 21.3% in test [3] (read-out: percent inhibition at 10 μM (given for EC50 >10 μM), 10 μM) and 3.3% in test [5].
For the molecule `CN1CCC(n2cc(C(=O)Nc3cc4cc(-c5cnc6[nH]ccc6c5)ccc4cn3)cn2)CC1` [Compound 126, N-(6-(1H-Pyrrolo[2,3-b]pyridin-5-yl)isoquinolin-3-yl)-1-(1-methylpiperidin-4-yl)-1H-pyrazole-4-carboxamide], the EC50 in test [1] (setting [7]) is 22 nM; in test [2] (setting [8]) it was above 10000 nM; in test [3], 768 nM; in test [4], 1450 nM; in test [5], 98 nM; in test [6], 2720 nM.
Take `Cc1ncc(-c2ccc3cnc(NC(=O)c4ccnc(N5CCN(C)CC5)c4)cc3c2)cn1` [Compound 64, 2-(4-Methylpiperazin-1-yl)-N-(6-(2-methylpyrimidin-5-yl)isoquinolin-3-yl)isonicotinamide]: the EC50 is 158 nM in test [1] (setting [7]); above 10000 nM in test [2] (setting [8]); 8020 nM in test [3]; 2000 nM in test [4]; above 10000 nM in test [5]; above 10000 nM in test [6]. Further, the inhibition at 10 µM in test [5] was 28.7%; in test [6], 5.7%.
As for `O=C(Nc1cc2cc(-c3cncc(NC4CCNCC4)c3)ccc2cn1)c1ccc(F)cc1` [Compound 45, 4-fluoro-N-(6-(5-(piperidin-4-ylamino)pyridin-3-yl)isoquinolin-3-yl) benzamide], the EC50 in test [1] was 9 nM; in test [2], above 10000 nM; in test [3] it was 865 nM; in test [4], 622 nM; in test [5] it was 698 nM; in test [6], 1130 nM.
On to `CN1CCN(c2cc(C(=O)Nc3cc4cc(-c5cncc(N6CCCC6)n5)ccc4cn3)ccn2)CC1` [Compound 123, 2-(4-Methylpiperazin-1-yl)-N-(6-(6-(pyrrolidin-1-yl)pyrazin-2-yl)isoquinolin-3-yl)isonicotinamide], for which the EC50 is 13 nM in test [1] (setting [7]); above 10000 nM in test [2] (setting [8]); 8330 nM in test [3]; 1040 nM in test [4]; 3570 nM in test [5]; above 10000 nM in test [6]. Besides, the inhibition at 10 µM in test [6] was found to be 20.9%.
Consider `CC(C)N1CCC(Nc2cncc(-c3ccc4cnc(NC(=O)c5ccc(F)cc5)cc4c3)n2)CC1` [Compound 119, 4-Fluoro-N-(6-(6-((1-isopropylpiperidin-4-yl)amino)pyrazin-2-yl)isoquinolin-3-yl)benzamide], for which the EC50 in test [1] (setting [7]) was 2 nM; in test [2] (setting [8]) it was above 10000 nM; in test [3], 9020 nM; in test [4], above 10000 nM; in test [5], above 10000 nM; in test [6], above 10000 nM. Besides, the inhibition at 10 µM came out at 7.7% in test [4], 23.7% in test [5] and 6.1% in test [6].
Turning to `CN1CCN(c2cc(C(=O)Nc3cc4cc(-c5cncc(F)c5)ccc4cn3)ccn2)CC1` [Compound 24, N-(6-(5-Fluoropyridin-3-yl)isoquinolin-3-yl)-2-(4-methylpiperazin-1-yl) isonicotinamide], the concentration for a half-maximal effect (EC50) was 11 nM in test [1] (setting [7]); above 10000 nM in test [2] (setting [8]); 9520 nM in test [3]; 2770 nM in test [4]; above 10000 nM in test [5]; above 10000 nM in test [6]. Besides, the inhibition at 10 µM in test [5] is 20.2%; in test [6] it was 2.8%.
As to `CC(C)Nc1cc(F)cc(-c2ccc3cnc(NC(=O)c4ccnc(N5CCN(C)CC5)c4)cc3c2)c1` [Compound 2, N-(6-(3-Fluoro-5-(isopropylamino)phenyl)isoquinolin-3-yl)-2-(4-methylpiperazin-1-yl)isonicotinamide], the EC50 in test [1] (setting [7]) is 354 nM; in test [2] (setting [8]) it was above 10000 nM; in test [3], 1380 nM; in test [4], 884 nM; in test [5] it was 2050 nM; in test [6], 1330 nM.
As for `CC(C)(C)Nc1cncc(-c2ccc3cnc(NC(=O)c4ccnc(N5CCOCC5)c4)cc3c2)n1` [Compound 102, N-(6-(6-(tert-Butylamino)pyrazin-2-yl)isoquinolin-3-yl)-2-morpholinoisonicotinamide], the EC50 in test [1] (setting [7]) is 19 nM; in test [2] (setting [8]), above 10000 nM; in test [3], 226 nM; in test [4], 94 nM; in test [5], 153 nM; in test [6], 401 nM.
For `Nc1cncc(-c2ccc3cnc(NC(=O)c4ccc(F)cc4)cc3c2)c1` [Compound 36, N-(6-(5-Aminopyridin-3-yl)isoquinolin-3-yl)-4-fluorobenzamide], the EC50 was found to be 2 nM in test [1] (setting [7]); 8860 nM in test [2] (setting [8]); 493 nM in test [3]; 292 nM in test [4]; 379 nM in test [5]; 1220 nM in test [6].
As to `O=C(Nc1cc2cc(-c3cncc(CN4CCCC4)c3)ccc2cn1)c1ccc(F)cc1` [Compound 52, 4-Fluoro-N-(6-(5-(pyrrolidin-1-ylmethyl)pyridin-3-yl)isoquinolin-3-yl) benzamide], the half-maximal effective concentration (EC50) is 12 nM in test [1] (setting [7]); above 10000 nM in test [2] (setting [8]); 6920 nM in test [3]; above 10000 nM in test [4]; above 10000 nM in test [5]; above 10000 nM in test [6]. Also, the inhibition at 10 µM in test [4] amounted to 37.1%; in test [5] it was 17.7%; in test [6] it was 17.6%.
Turning to `O=C(CN1CCCC1)Nc1cc2cc(-c3ccnnc3)ccc2cn1` [Compound 68, N-(6-(Pyridazin-4-yl)isoquinolin-3-yl)-2-(pyrrolidin-1-yl)acetamide], the EC50 came out at 328 nM in test [1] (setting [7]); 2590 nM in test [2] (setting [8]); 7910 nM in test [3]; 3380 nM in test [4]; 4210 nM in test [5]; 8760 nM in test [6].
With `Nc1cncc(-c2ccc3cnc(NC(=O)c4ccc(OC5CCNCC5)cc4)cc3c2)c1` [Compound 37, N-(6-(5-Aminopyridin-3-yl)isoquinolin-3-yl)-4-(piperidin-4-yloxy) benzamide], the half-maximal effective concentration (EC50) is 1 nM in test [1] (setting [7]); 4620 nM in test [2] (setting [8]); 81 nM in test [3]; above 10000 nM in test [4]; 109 nM in test [5]; 662 nM in test [6]. Also, in test [4], the inhibition at 10 µM turned out to be 39.5%.
For the molecule `Cc1cc2cc(-c3ccc4cnc(NC(=O)c5ccnc(N6CCN(C)CC6)c5)cc4c3)cnc2[nH]1` [Compound 133, N-(6-(2-Methyl-1H-pyrrolo[2,3-b]pyridin-5-yl)isoquinolin-3-yl)-2-(4-methylpiperazin-1-yl)isonicotinamide], the EC50 in test [1] (setting [7]) is 57 nM; in test [2] (setting [8]), above 10000 nM; in test [3] it was 3740 nM; in test [4], 4030 nM; in test [5], 4080 nM; in test [6], 3280 nM.
Regarding `CCN(CC)c1cncc(-c2ccc3cnc(NC(=O)c4ccnc(N5CCN(C)CC5)c4)cc3c2)n1` [Compound 121, N-(6-(6-(Diethylamino)pyrazin-2-yl)isoquinolin-3-yl)-2-(4-methylpiperazin-1-yl)isonicotinamide], the EC50 in test [1] (setting [7]) is 6 nM; in test [2] (setting [8]), above 10000 nM; in test [3] it was 2910 nM; in test [4] it was 710 nM; in test [5], 1040 nM; in test [6] it was 1910 nM.
For the molecule `CN1CCN(c2cc(C(=O)Nc3cc4cc(-c5cccnc5)ccc4cn3)ccn2)CC1` [Compound 13, 2-(4-Methylpiperazin-1-yl)-N-(6-(pyridin-3-yl)isoquinolin-3-yl) isonicotinamide], the EC50 in test [1] is 3 nM; in test [2] it was above 10000 nM; in test [3], 324 nM; in test [4], 805 nM; in test [5] it was 159 nM; in test [6] it was 2820 nM.
